Results as given in patent US20240101563A1, “NOVEL COMPOUNDS” (AC Immune SA, priority 2022, published 2024).
Counter-ions that a name gives are not always drawn.

System: NLRP3 inflammasome pathway
Assay: NLRP3 inflammasome pathway activation assay, MSU stimulation, IL-1β HTRF
Format: cell-based
Details: Homo sapiens, 3 h, Table 7; PMA-differentiated, LPS-primed cells; MSU 200 μg/mL for 3 h; IL-1β release; read-out: IC50 Human monocyte-like cells MSU
Protocol: The following assays were used to determine the inhibitory activity of test compounds on the NLRP3 inflammasome pathway using common stimuli Nigericin (Invivogen) or monosodium urate crystals (MSU) (Invivogen).
Human monocyte-like cells were cultured in RPMI-1640 Glutamax medium supplemented with 10% heat inactivated FBS (Fetal Bovine Serum) and 50 U/mL penicillin-streptomycin (Life Technologies).
Human monocyte-like cells were seeded at 25000 per well in a 384-well plate and were differentiated overnight into macrophages with 10 ng/mL PMA (Phorbol Myristate Acetate). The following day, medium containing 10 ng/mL LPS (Lipopolysaccharide) was added. After 3 hours of LPS priming, concentrations of test compound in the range from […] were added 30 min prior to NLRP3 inflammasome pathway stimulation with Nigericin 3.75 μM or MSU 200 μg/mL for 3 h.
For IL-1p quantification, supernatants were analyzed using HTRF kit according to the manufacturer's instructions (Cisbio 62HIL1BPEH). Briefly, in a 384-well ProxiPlate™ microplate, 8 μl of sample was mixed, with 5 μl of Anti-IL1β Cryptate antibody (40×) and Anti-IL1β XL antibody (40×). Then, incubated overnight at RT. Reading was done using an EnVision Reader (PerkinElmer).
IC50 (concentration corresponding to 50% inhibition) were determined using GraphPad Prism 9.

Question: Which IC50 does the source give for `CC(C)n1c(-c2ccc(C(F)(F)F)cc2O)nc2nc(NCCO)ccc21` [Example 17, 2-(5-((2-hydroxyethyl)amino)-1-isopropyl-1H-imidazo[4,5-b]pyridin-2-yl)-5-(trifluoromethyl)phenol] here?
Answer: 100 to 1000 nM

Question: How did the IC50 turn out when `CN1CC[C@@H](Oc2ccc3c(n2)nc(-c2ccc(C(F)(F)F)cc2O)n3C)C1` [Example 27, (R)-2-(1-methyl-5-((1-methylpyrrolidin-3-yl)oxy)-1H-imidazo[4,5-b]pyridin-2-yl)-5-(trifluoromethyl)phenol] was run?
Answer: < 100 nM

Question: Which IC50 does the source give for `Cc1cc(C(F)(F)F)cc(O)c1-c1nc2nc(O[C@@H]3CCN(C)C3)ccc2n1C` [Example 28, (R)-3-methyl-2-(1-methyl-5-((1-methylpyrrolidin-3-yl)oxy)-1H-imidazo[4,5-b]pyridin-2-yl)-5-(trifluoromethyl)phenol] here?
Answer: < 100 nM

Question: `CCn1c(-c2c(C)cc(Cl)cc2O)nc2nc(OC)ccc21` [Example 30, 5-chloro-2-(1-ethyl-5-methoxy-1H-imidazo[4,5-b]pyridin-2-yl)-3-methylphenol] was tested. Which IC50 did it give?
Answer: 100 to 1000 nM

Question: With `COc1ccc2c(n1)nc(-c1c(C)cc(Cl)cc1O)n2C(C)C` [Example 31, 5-chloro-2-(1-isopropyl-5-methoxy-1H-imidazo[4,5-b]pyridin-2-yl)-3-methylphenol] as the molecule, how does the IC50 read?
Answer: 100 to 1000 nM

Question: Which IC50 does the source give for `Cc1cc(C(F)(F)F)cc(O)c1-c1nc2nc(OCCO)ccc2n1C(C)C` [Example 33, 2-(5-(2-hydroxyethoxy)-1-isopropyl-1H-imidazo[4,5-b]pyridin-2-yl)-3-methyl-5-(trifluoromethyl)phenol] here?
Answer: 100 to 1000 nM

Question: `COc1ccc2c(n1)nc(-c1c(C)cc(C(F)(F)F)cc1O)n2C(C)C` [Example 34, 2-(1-isopropyl-5-methoxy-1H-imidazo[4,5-b]pyridin-2-yl)-3-methyl-5-(trifluoromethyl)phenol] was tested. Which IC50 did it give?
Answer: 100 to 1000 nM

Question: Which IC50 does the source give for `COc1ccc2c(n1)nc(-c1ccc(C(F)(F)F)cc1O)n2C(C)C` [Example 35, 2-(1-isopropyl-5-methoxy-1H-imidazo[4,5-b]pyridin-2-yl)-5-(trifluoromethyl)phenol] here?
Answer: 100 to 1000 nM

Question: For `Cc1cc(Cl)cc(O)c1-c1nc2nc(OCC(F)(F)F)ccc2n1C` [Example 38, 5-chloro-3-methyl-2-(1-methyl-5-(2,2,2-trifluoroethoxy)-1H-imidazo[45-b]pyridin-2-yl)phenol], which IC50 is on record?
Answer: 100 to 1000 nM

Question: `CN1CCC[C@@H](Nc2ccc3cn(-c4ccc(C(F)(F)F)cc4O)nc3n2)C1` [Example 40, (R)-2-(6-((1-methylpiperidin-3-yl)amino)-2H-pyrazolo[3,4-b]pyridin-2-yl)-5-(trifluoromethyl)phenol formate] was tested. Which IC50 did it give?
Answer: < 100 nM

Question: Which IC50 does the source give for `CNc1ccc2cn(-c3ccc(C(F)(F)F)cc3O)nc2n1` [Example 41, 2-[6-(methylamino)pyrazolo[3,4-b]pyridin-2-yl]-5-(trifluoromethyl)phenol] here?
Answer: 100 to 1000 nM

Question: Which IC50 does the source give for `COc1ccc2cn(-c3ccc(C(F)(F)F)cc3O)nc2n1` [Example 42] here?
Answer: 100 to 1000 nM

Question: With `CN1CCC[C@@H](Nc2ccc3cn(-c4ccc(Cl)cc4O)nc3n2)C1` [Example 43, (R)-5-chloro-2-(6-((1-methylpiperidin-3-yl)amino)-2H-pyrazolo[3,4-b]pyridin-2-yl)phenol] as the molecule, how does the IC50 read?
Answer: < 100 nM

Question: For `Oc1cc(C(F)(F)F)ccc1-n1cc2ccc(OC(F)(F)F)nc2n1` [Example 45, 2-[6-(trifluoromethoxy)pyrazolo[3,4-b]pyridin-2-yl]-5-(trifluoromethyl)phenol], which IC50 is on record?
Answer: 100 to 1000 nM

Question: How did the IC50 turn out when `Cc1cc(C(F)(F)F)cc(O)c1-c1nc2nc(N[C@@H]3CCN(C)C3)c(F)cc2n1C` [Example 46, (R)-2-(6-fluoro-1-methyl-5-((1-methylpyrrolidin-3-yl)amino)-1H-imidazo[4,5-b]pyridin-2-yl)-3-methyl-5-(trifluoromethyl)phenol] was run?
Answer: < 100 nM

Question: Which IC50 does the source give for `Cc1cc(Cl)cc(O)c1-c1nc2nc(N[C@@H]3CCN(C)C3)c(F)cc2n1C` [Example 47, (R)-5-chloro-2-(6-fluoro-1-methyl-5-((1-methylpyrrolidin-3-yl)amino)-1H-imidazo[4,5-b]pyridin-2-yl)-3-methylphenol formate Salt] here?
Answer: < 100 nM

Question: `OCCNc1ccc2cn(-c3ccc(C(F)(F)F)cc3O)nc2n1` [Example 48, 2-(6-((2-hydroxyethyl)amino)-2H-pyrazolo[3,4-b]pyridin-2-yl)-5-(trifluoromethyl)phenol] was tested. Which IC50 did it give?
Answer: 100 to 1000 nM

Question: For `Cn1c(-c2ccc(Cl)cc2O)nc2nc(C(F)(F)F)ccc21` [Example 49, 5-chloro-2-(1-methyl-5-(trifluoromethyl)-1H-imidazo[4,5-b]pyridin-2-yl)phenol], which IC50 is on record?
Answer: 100 to 1000 nM

Question: With `COc1nc2nc(-c3ccc(C(F)(F)F)cc3O)n(C)c2cc1CO` [Example 51, 2-(6-(hydroxymethyl)-5-methoxy-1-methyl-1H-imidazo[4,5-b]pyridin-2-yl)-5-(trifluoromethyl)phenol] as the molecule, how does the IC50 read?
Answer: < 100 nM

Question: `COc1nc2nc(-c3c(C)cc(C(F)(F)F)cc3O)n(C)c2cc1CO` [Example 52, 2-(6-(hydroxymethyl)-5-methoxy-1-methyl-1H-imidazo[4,5-b]pyridin-2-yl)-3-methyl-5-(trifluoromethyl)phenol] was tested. Which IC50 did it give?
Answer: < 100 nM

Question: `Cn1c(-c2ccc(C(F)(F)F)cc2O)nc2nc(NCC3(O)COC3)ccc21` [Example 54, 3-(((2-(2-hydroxy-4-(trifluoromethyl)phenyl)-1-methyl-1H-imidazo[4,5-b]pyridin-5-yl)amino)methyl)oxetan-3-ol] was tested. Which IC50 did it give?
Answer: 100 to 1000 nM

Question: With `COc1cnc2c(n1)nc(-c1c(C)cc(C(F)(F)F)cc1O)n2C` [Example 56, 2-(5-methoxy-1-methyl-1H-imidazo[4,5-b]pyrazin-2-yl)-3-methyl-5-(trifluoromethyl)phenol] as the molecule, how does the IC50 read?
Answer: < 100 nM

Question: How did the IC50 turn out when `COc1nc2nc(-c3c(C)cc(C(F)(F)F)cc3O)n(C)c2cc1C(C)(C)O` [Example 57, 2-[6-(1-hydroxy-1-methyl-ethyl)-5-methoxy-1-methyl-imidazo[4,5-b]pyridin-2-yl]-3-methyl-5-(trifluoromethyl)phenol] was run?
Answer: 100 to 1000 nM

Question: `Cc1cc(Cl)cc(O)c1-c1nc2nc(O[C@@H]3CCN(C)C3)cnc2n1C` [Example 58, (R)-5-chloro-3-methyl-2-(1-methyl-5-((1-methylpyrrolidin-3-yl)oxy)-1H-imidazo[4,5-b]pyrazin-2-yl)phenol formate Salt] was tested. Which IC50 did it give?
Answer: < 100 nM

Question: For `COc1cnc2c(n1)nc(-c1c(C)cc(Cl)cc1O)n2C` [Example 59, 5-chloro-2-(5-methoxy-1-methyl-imidazo[4,5-b]pyrazin-2-yl)-3-methyl-phenol formate Salt], which IC50 is on record?
Answer: < 100 nM

Question: Which IC50 does the source give for `Cc1cc(C(F)(F)F)cc(O)c1-c1nc2nc(N(C)[C@@H]3CCN(C)C3)cnc2n1C` [Example 60, (R)-3-methyl-2-(1-methyl-5-(methyl(1-methylpyrrolidin-3-Yl)amino)-1H-imidazo[4,5-b]pyrazin-2-yl)-5-(trifluoromethyl)phenol formate Salt] here?
Answer: < 100 nM

Question: `Cc1cc(C(F)(F)F)cc(O)c1-c1nc2nc(N3CCOCC3)cnc2n1C` [Example 61, 3-methyl-2-(1-methyl-5-morpholino-1H-imidazo[4,5-b]pyrazin-2-yl)-5-(trifluoromethyl)phenol] was tested. Which IC50 did it give?
Answer: < 100 nM

Question: `Cc1cc(Cl)cc(O)c1-c1nc2nc(NC3CN(C)CC3(F)F)ccc2n1C` (stereo not drawn) [Example 62, 5-chloro-2-(5-((4,4-difluoro-1-methylpyrrolidin-3-yl)amino)-1-methyl-1H-imidazo[4,5-b]pyridin-2-yl)-3-methylphenol HCl Salt] was tested. Which IC50 did it give?
Answer: 100 to 1000 nM

Question: With `Cc1cc(C(F)(F)F)cc(O)c1-c1nc2nc(N3CCC(O)CC3)cnc2n1C` [Example 63, 1-(2-(2-hydroxy-6-methyl-4-(trifluoromethyl)phenyl)-1-methyl-1H-imidazo[4,5-b]pyrazin-5-yl)piperidin-4-ol] as the molecule, how does the IC50 read?
Answer: < 100 nM

Question: How did the IC50 turn out when `Cc1cc(Cl)cc(O)c1-c1nc2nc(N3CCOCC3)c(F)cc2n1C` [Example 64, 5-chloro-2-(6-fluoro-1-methyl-5-morpholino-1H-imidazo[4,5-b]pyridin-2-yl)-3-methylphenol] was run?
Answer: 100 to 1000 nM

Question: Which IC50 does the source give for `COc1nc2nc(-c3c(C)cc(C(F)(F)F)cc3O)n(C)c2nc1CO` [Example 65, 2-(6-(hydroxymethyl)-5-methoxy-1-methyl-1H-imidazo[4,5-b]pyrazin-2-yl)-3-methyl-5-(trifluoromethyl)phenol] here?
Answer: < 100 nM

Question: With `Cc1cc(Cl)cc(O)c1-c1nc2nc(N3CCOCC3)cnc2n1C` [Example 66, 5-chloro-3-methyl-2-(1-methyl-5-morpholino-imidazo[4,5-b]pyrazin-2-yl)phenol] as the molecule, how does the IC50 read?
Answer: < 100 nM

Question: For `Cc1cc(C(F)(F)F)cc(O)c1-c1nc2nc(N(C)C)c(CO)cc2n1C` [Example 67, 2-[5-(dimethylamino)-6-(hydroxymethyl)-1-methyl-imidazo[4,5-b]pyridin-2-yl]-3-methyl-5-(trifluoromethyl)phenol], which IC50 is on record?
Answer: < 100 nM

Same assay, conditions: Homo sapiens, 3 h, read-out: IC50 Human monocyte-like cells MSU

Question: Which IC50 does the source give for `Cc1cc(Cl)cc(O)c1-c1nc2nc(OC3CC(F)(F)C3)ccc2n1C` [Example 39, 5-chloro-2-(5-(3,3-difluorocyclobutoxy)-1-methyl-1H-imidazo[4,5-b]pyridin-2-yl)-3-methylphenol] here?
Answer: 100 to 1000 nM

Question: Which IC50 does the source give for `Oc1cc(C(F)(F)F)ccc1-n1cc2ccc(OC(F)F)nc2n1` [Example 44, 2-[6-(difluoromethoxy)pyrazolo[3,4-b]pyridin-2-yl]-5-(trifluoromethyl)phenol] here?
Answer: 100 to 1000 nM

Same assay, conditions: Table 7; PMA-differentiated, LPS-primed cells; MSU 200 μg/mL for 3 h; IL-1β release; read-out: IC50 Human monocyte-like cells MSU

Question: With `Cc1cc(C(F)(F)F)cc(O)c1-c1nc2nc(NC3CCCC3O)ccc2n1C` (stereo not drawn) [Example 36] as the molecule, how does the IC50 read?
Answer: 100 to 1000 nM
